Laboratory results: the NIST ThermoML archive (doi:10.1016/j.jct.2016.09.027)

Test: mn = molality of the nth substance listed, in mol/kg
Conditions: 100 kPa, Liquid; for speed of sound: Frequency=3 MHz, Sing-around technique in a fixed-path interferometer; for mass density: Vibrating tube method

C[C@H]1COc2c(N3CCN(C)CC3)c(F)cc3c(=O)c(C(=O)O)cn1c23 [levofloxacin] + O
Conditions	mass density, 288.15 K [kg/m3]	mass density, 293.15 K [kg/m3]	mass density, 298.15 K [kg/m3]	mass density, 303.15 K [kg/m3]	mass density, 308.15 K [kg/m3]	speed of sound, 288.15 K [m/s]	speed of sound, 293.15 K [m/s]	speed of sound, 298.15 K [m/s]	speed of sound, 303.15 K [m/s]	speed of sound, 308.15 K [m/s]
m1 = 0.005	1001.5	1000.61	999.444	998.037	996.415	1467.4	1483.2	1497.3	1509.7	1520.3
m1 = 0.01	1002.04	1001.14	999.956	998.556	996.926	1468.3	1484	1498.1	1510.4	1521
m1 = 0.03	1004.52	1003.59	1002.39	1000.96	999.305	1471.4	1487.2	1500.9	1513	1523.4
